Data published in the NIST ThermoML archive (doi:10.1016/j.jct.2018.02.010).
± gives the expanded uncertainty stated by the source.

Assay: not given
Conditions: 278.15 K; 101.3 kPa; Liquid mixture 1; spinning drop method

interfacial tension [mN/m] | Compound
0.56 ± 0.03 | COC=O [methyl methanoate] + O
1.86 ± 0.03 | COC(C)=O [methyl ethanoate] + O
13.6 ± 0.03 | CCCCC(=O)OC [methyl pentanoate] + O
7.02 ± 0.03 | CCC(=O)OC [methyl propanoate] + O
10.6 ± 0.03 | CCCC(=O)OC [methyl butanoate] + O
14.6 ± 0.03 | CCCCCC(=O)OC [methyl hexanoate] + O

Same assay, conditions: 288.15 K; 101.3 kPa; Liquid mixture 1; spinning drop method

interfacial tension [mN/m] | Compound
0.77 ± 0.03 | COC=O [methyl methanoate] + O
16 ± 0.03 | CCCCCCC(=O)OC [methyl heptanoate] + O
1.77 ± 0.03 | COC(C)=O [methyl ethanoate] + O
14 ± 0.03 | CCCCC(=O)OC [methyl pentanoate] + O
7.55 ± 0.03 | CCC(=O)OC [methyl propanoate] + O
10.9 ± 0.03 | CCCC(=O)OC [methyl butanoate] + O
15 ± 0.03 | CCCCCC(=O)OC [methyl hexanoate] + O

Same assay, conditions: 298.15 K; 101.3 kPa; Liquid mixture 1; spinning drop method

interfacial tension [mN/m] | Compound
16.7 ± 0.03 | CCCCCCC(=O)OC [methyl heptanoate] + O
1.66 ± 0.03 | COC(C)=O [methyl ethanoate] + O
14.1 ± 0.03 | CCCCC(=O)OC [methyl pentanoate] + O
7.69 ± 0.03 | CCC(=O)OC [methyl propanoate] + O
11.1 ± 0.03 | CCCC(=O)OC [methyl butanoate] + O
15.5 ± 0.03 | CCCCCC(=O)OC [methyl hexanoate] + O

Same assay, conditions: 308.15 K; 101.3 kPa; Liquid mixture 1; spinning drop method

interfacial tension [mN/m] | Compound
17.3 ± 0.04 | CCCCCCC(=O)OC [methyl heptanoate] + O
1.49 ± 0.03 | COC(C)=O [methyl ethanoate] + O
14 ± 0.03 | CCCCC(=O)OC [methyl pentanoate] + O
7.56 ± 0.03 | CCC(=O)OC [methyl propanoate] + O
11.1 ± 0.03 | CCCC(=O)OC [methyl butanoate] + O
15.7 ± 0.03 | CCCCCC(=O)OC [methyl hexanoate] + O

Same assay, conditions: 318.15 K; 101.3 kPa; Liquid mixture 1; spinning drop method

interfacial tension [mN/m] | Compound
17.5 ± 0.04 | CCCCCCC(=O)OC [methyl heptanoate] + O
1.17 ± 0.03 | COC(C)=O [methyl ethanoate] + O
13.9 ± 0.03 | CCCCC(=O)OC [methyl pentanoate] + O
7.34 ± 0.03 | CCC(=O)OC [methyl propanoate] + O
11 ± 0.03 | CCCC(=O)OC [methyl butanoate] + O
15.8 ± 0.03 | CCCCCC(=O)OC [methyl hexanoate] + O

Same assay, conditions: 328.15 K; 101.3 kPa; Liquid mixture 1; spinning drop method

interfacial tension [mN/m] | Compound
17.6 ± 0.04 | CCCCCCC(=O)OC [methyl heptanoate] + O
0.75 ± 0.03 | COC(C)=O [methyl ethanoate] + O
13.7 ± 0.03 | CCCCC(=O)OC [methyl pentanoate] + O
6.63 ± 0.03 | CCC(=O)OC [methyl propanoate] + O
10.6 ± 0.03 | CCCC(=O)OC [methyl butanoate] + O
15.7 ± 0.03 | CCCCCC(=O)OC [methyl hexanoate] + O

Same assay, conditions: 338.15 K; 101.3 kPa; Liquid mixture 1; spinning drop method

interfacial tension [mN/m] | Compound
17.5 ± 0.04 | CCCCCCC(=O)OC [methyl heptanoate] + O
13.5 ± 0.03 | CCCCC(=O)OC [methyl pentanoate] + O
5.06 ± 0.03 | CCC(=O)OC [methyl propanoate] + O
10.05 ± 0.03 | CCCC(=O)OC [methyl butanoate] + O
15.5 ± 0.03 | CCCCCC(=O)OC [methyl hexanoate] + O

Same assay, conditions: 348.15 K; 101.3 kPa; Liquid mixture 1; spinning drop method

interfacial tension [mN/m] | Compound
16.9 ± 0.03 | CCCCCCC(=O)OC [methyl heptanoate] + O
13.2 ± 0.03 | CCCCC(=O)OC [methyl pentanoate] + O
9.4 ± 0.03 | CCCC(=O)OC [methyl butanoate] + O
15.1 ± 0.03 | CCCCCC(=O)OC [methyl hexanoate] + O

Same assay, conditions: 358.15 K; 101.3 kPa; Liquid mixture 1; spinning drop method

interfacial tension [mN/m] | Compound
15.9 ± 0.03 | CCCCCCC(=O)OC [methyl heptanoate] + O
12.9 ± 0.03 | CCCCC(=O)OC [methyl pentanoate] + O
14.6 ± 0.03 | CCCCCC(=O)OC [methyl hexanoate] + O

Assay: not given
Conditions: 298.15 K, Maximal bubble pressure

surface tension liquid-gas [mN/m] | Compound
24.96 ± 0.25 | COC=O [methyl methanoate]
24.93 ± 0.25 | COC(C)=O [methyl ethanoate]
24.61 ± 0.25 | CCC(=O)OC [methyl propanoate]
26.01 ± 0.26 | CCCCCC(=O)OC [methyl hexanoate]
25.34 ± 0.25 | CCCCC(=O)OC [methyl pentanoate]
24.56 ± 0.25 | CCCC(=O)OC [methyl butanoate]
26.73 ± 0.26 | CCCCCCC(=O)OC [methyl heptanoate]

Same assay, conditions: 298.15 K; 101.33 kPa; Liquid; Vibrating tube method

mass density [kg/m3] | Compound
960.85 ± 0.3 | COC=O [methyl methanoate]
926.9 ± 0.72 | COC(C)=O [methyl ethanoate]
909.3 ± 0.72 | CCC(=O)OC [methyl propanoate]
879.76 ± 0.72 | CCCCCC(=O)OC [methyl hexanoate]
885.66 ± 0.72 | CCCCC(=O)OC [methyl pentanoate]
892.62 ± 0.72 | CCCC(=O)OC [methyl butanoate]
875.61 ± 0.72 | CCCCCCC(=O)OC [methyl heptanoate]

Assay: refractive index (Na D-line) (dimensionless)
Conditions: 298.15 K; 101.33 kPa; Liquid; refractometer model RFM 81

refractive index | Compound
1.34174 ± 0.0008 | COC=O [methyl methanoate]
1.36008 ± 0.0008 | COC(C)=O [methyl ethanoate]
1.37572 ± 0.0008 | CCC(=O)OC [methyl propanoate]
1.40443 ± 0.0008 | CCCCCC(=O)OC [methyl hexanoate]
1.39628 ± 0.0008 | CCCCC(=O)OC [methyl pentanoate]
1.38486 ± 0.0008 | CCCC(=O)OC [methyl butanoate]
1.41086 ± 0.0008 | CCCCCCC(=O)OC [methyl heptanoate]
